Laboratory results: patent US10080777B2, “Syndecan peptides and polypeptides and uses thereof” (WISCONSIN ALUMNI RESEARCH FOUNDATION, priority 2012, dated 2018)
“Also recorded” adds a separate entry of the source. Ends that are not written are not given here.

Columns and labels:
[1] = system: human HaCat keratinocytes or MCF10A mammary epithelial cells; test: Competition of GST-fusion proteins or synthetic peptides in EGF-stimulated scratch wound migration (FIG. 8 summary); type: cell-based; conditions: for competitive activity: FIGS. 8A-C
Experimental: FIGS. 8A-C. […] GST-fusion proteins or synthetic peptides were added at concentrations ranging from 0.1 to 30 μM to the culture medium of human HaCat keratinocytes or MCF10A mammary epithelial cells in the presence or absence of 20 ng/ml EGF. The ability of the constructs to inhibit the migration of the cells to close a scratch wound in confluent monolayers was determined and express as the concentration of inhibitor necessary to cause 50% inhibition of cell migration. (FIG. 8A) Competition using recombinant GST-fusion proteins. GST-Sdc4 fusion proteins bearing truncations or mutations were assessed for their competitive activity. […] (FIG. 8B) Schematic representation of the active site in Sdc4. The active site is shown as a juxtamembrane site in the ectodomain of Sdc4. TM is the transmembrane domain and CYTO is the cytoplasmic domain. The sequence of a peptide derived from this site ([…]) (SEQ ID NO: 4) is shown along with its homology across other mammalian Sdc4 species (SEQ ID NO: 12) and its homology to Sdc4 derived from zebrafish (SEQ ID NO: 13), identifying highly conserved amino acids at the extreme N- and C-terminus of the peptide. (FIG. 8C) Competition with synthetic peptides. Peptides were purchased from commercial sources for testing as a putative synstatin inhibitory peptide ([…]). Mutation of isoleucine at position 89 to alanine (I89A), or mutation of amino acids 99-108 to alanine (99-108A) reduce the activity by 10-fold. Truncation of amino acids 126-131 at the C-terminus (4126-131) reduces the activity by at least 100-fold.
Wound healing assay. HaCat or MCF10A cells grown to confluence on 48 well-plates were starved for 6 hr by serum deprivation followed by introduction of a scratch wound in the monolayer using 200 μl pipette tip. […] Images were acquired using a PlanApo 20 (0.75 numerical aperture) objective and a Photometrics CoolSnap ES camera on a Nikon Eclipse TE2000U microscopy system and wound closure quantified.

[2] = system: HaCat keratinocytes; test: EGF-stimulated scratch wound closure (chemotactic migration) of HaCat keratinocytes; type: cell-based, human; conditions: EGF 10 ng/ml
[3] = system: UM-SCC47 cells; test: Total cell number, CellTiterGLO assay, UM-SCC47; type: cell-based, human; conditions: 3-30 μM; combinations each at 10 μM; 4 or 7 days
Experimental: (§1) FIGS. 9A-F. SSTN treatment of normal (nontransformed) epithelial cells versus carcinoma (transformed) cells. Cells are plated for one day, then treated with either 3-30 μM […] (SSTN-I), 3-30 μM […] (SSTN-E), 3-30 μM SSTNHER2 (SSTN-H) or combinations of the three peptides, each at 10 μM to test their additive effect. […] The treatment times are chosen to reflect only modest effects of the peptides used singly, so that the more pronounced effect of peptides used in combination can still be observed. Treatment for longer times leads to significant cell death observed even with single peptides alone. (FIG. 9A) HaCat human keratinocytes, an example of a normal stratified epithelium, (FIG. 9B) UM-SCC47 cells, a squamous cell carcinoma derived from the tongue of a patient (a stratrified epithelium), (FIG. 9C) SCC25 cells, another squamous cell carcinoma from the tongue of a patient), (FIG. 9D) MCF10A cells, a normal human breast epithelium, (FIG. 9E) MDA-MB-468 cells, a triple-negative (TN) breast carcinoma, and (FIG. 9F) SKBr3 cells, a HER2+ human breast carcinoma. Note that all four carcinomas are inhibited by […], and this is enhanced when […] is combined with the other SSTN peptides, leading to obvious cell death (e.g., the number of cells at the end of the experiment are less than at the beginning).
(§2) Apoptosis assay. […]

[4] = system: MCF10A cells; test: Total cell number, CellTiterGLO assay, MCF10A; type: cell-based, human; conditions: 3-30 μM; 4 or 7 days; normal epithelium
Experimental: as §1, §2

[5] = system: SKBr3 cells; test: Total cell number, CellTiterGLO assay, SKBr3; type: cell-based, human; conditions: 3-30 μM; combinations each at 10 μM; 4 or 7 days
Experimental: as §1, §2

[6] = system: HaCat human keratinocytes; test: Total cell number, CellTiterGLO assay, HaCat; type: cell-based; conditions: 3-30 μM; 4 or 7 days; normal epithelium
Experimental: as §1, §2

[7] = system: MDA-MB-468 cells; test: Total cell number, CellTiterGLO assay, MDA-MB-468; type: cell-based, human; conditions: 3-30 μM; combinations each at 10 μM; 4 or 7 days
Experimental: as §1, §2

[8] = system: SCC25 cells; test: Total cell number, CellTiterGLO assay, SCC25; type: cell-based, human; conditions: 3-30 μM; combinations each at 10 μM; 4 or 7 days
Experimental: as §1, §2

[9] = system: MCF10A mammary epithelial cells
Experimental: Migration of human MCF10A mammary epithelial cells in response to EGF (10 ng/ml) is tested in 12 hr scratch wound closure assays.
Wound healing assay. HaCat or MCF10A cells grown to confluence on 48 well-plates were starved for 6 hr by serum deprivation followed by introduction of a scratch wound in the monolayer using 200 μl pipette tip. […] To cause EGF-stimulated chemotactic migration that depends on Sdc4, cells were stimulated with EGF (10 ng/ml). Images were acquired using a PlanApo 20 (0.75 numerical aperture) objective and a Photometrics CoolSnap ES camera on a Nikon Eclipse TE2000U microscopy system and wound closure quantified.

[10] = system: fibroblasts; conditions: McFall et al.; cited from earlier work
[11] = system: MDA-MB-468 breast carcinoma; test: MDA-MB-468 breast carcinoma subcutaneous tumor growth in nude mice, Alzet pump delivery; type: in vivo, nude (nu/nu) mice; conditions: 400 μM in pump, 0.25 μL/hr systemic, 8 wks, started 2 weeks after implantation
Experimental: (§3) FIG. 10. S4ED blocks MDA-MB-468 breast carcinoma growth in vivo. Human MDA-MB-468 breast carcinoma cells were implanted subcutaneously on the flank of nude (nu/nu) mice and allowed to grow for 2 weeks to form palpable tumors (dotted blue line indicates size after 2 weeks). At that time, systemic delivery (0.25 μL/hr) of 400 μM recombinant GST-S4ED, GST alone or saline alone (no treatment) was initiated by surgical implantation of Alzet pumps on the behind the shoulder blades of the animals for 4 wks, followed by replacement with pumps containing fresh protein for an additional 4 wks. Tumor size was measured with calipers at 2 week intervals. Error bars denote S.D., 10 tumors/treatment group.
(§4) The inventor has tested the entire recombinant S4ED protein (as a GST-S4ED fusion protein) as an inhibitor against one of these carcinoma cells (the MDA-MB-468 cells) during tumor growth in immunocompromised nude (nu/nu) mice.

[12] = biological target: T1, HER2 (Homo sapiens, UniProt P04626); test: Capture of HER2 from cell lysates by GST-ectodomain on glutathione beads; type: binding; conditions: lysates of EGF-stimulated A431 cells; western blot
T1 construct: endogenous in cells
Experimental: (§5) (FIG. 6A) Mouse syndecan chimeras in which their ectodomains are switched are expressed in HaCat cells, then immunoprecipitated with antibodies specific for the mouse syndecan ectodomains. […] Also note that these complexes assemble only upon EGF treatment.
(§6) Immunoprecipitation. Immunoprecipitations were carried out as described previously (Beauvais et al., 2004; Beauvais et al., 2006). Cells were washed once with washing buffer (50 mM Hepes, 50 mM NaCl and 10 mM EDTA, pH 7.4) and lysed for 20 min on ice in 1% Triton X-100 containing a 1:1000 dilution of protease inhibitor mixture set III (Calbiochem) in washing buffer. Cell debris was removed by centrifugation at 20,000 g for 15 min at 4° C. Lysates or 6×His-tagged β4 cytoplasmic domain (amino acids 1677-1752) were incubated at 4° C. overnight with 100 μl Glutathione Sepharose 4B beads (50% in IP wash buffer), GST-S4CD or GST-S1CD in present or absent of different peptides. Samples were resolved by electrophoresis under reduced conditions on a 15% Laemmli gel, transferred to Immobilon P, and probed with primary antibody followed by an alkaline phosphatase-conjugated secondary antibody. Visualization of immune-reactive bands was performed using ECF reagent (GE Healthcare) and scanned on a Typhoon Trio Variable Mode Imager (GE-Healthcare) in blue fluorescence. […]

[13] = biological target: T2, EGFR (Homo sapiens, UniProt P00533); test: Capture of EGFR from cell lysates by GST-ectodomain on glutathione beads; type: binding; conditions: lysates of EGF-stimulated A431 cells / HaCat cell lysates, western blot
T2 construct: endogenous in cells
Experimental: as §5, §6

[14] = biological target: T3, α6β4 integrin (Homo sapiens, UniProt P16144+P23229); test: Capture of α6β4 integrin from cell lysates by GST-ectodomain on glutathione beads; type: binding; conditions: re-probed blot, data not shown
T3 construct: endogenous in cells
T3 sequence (P23229 24-1130): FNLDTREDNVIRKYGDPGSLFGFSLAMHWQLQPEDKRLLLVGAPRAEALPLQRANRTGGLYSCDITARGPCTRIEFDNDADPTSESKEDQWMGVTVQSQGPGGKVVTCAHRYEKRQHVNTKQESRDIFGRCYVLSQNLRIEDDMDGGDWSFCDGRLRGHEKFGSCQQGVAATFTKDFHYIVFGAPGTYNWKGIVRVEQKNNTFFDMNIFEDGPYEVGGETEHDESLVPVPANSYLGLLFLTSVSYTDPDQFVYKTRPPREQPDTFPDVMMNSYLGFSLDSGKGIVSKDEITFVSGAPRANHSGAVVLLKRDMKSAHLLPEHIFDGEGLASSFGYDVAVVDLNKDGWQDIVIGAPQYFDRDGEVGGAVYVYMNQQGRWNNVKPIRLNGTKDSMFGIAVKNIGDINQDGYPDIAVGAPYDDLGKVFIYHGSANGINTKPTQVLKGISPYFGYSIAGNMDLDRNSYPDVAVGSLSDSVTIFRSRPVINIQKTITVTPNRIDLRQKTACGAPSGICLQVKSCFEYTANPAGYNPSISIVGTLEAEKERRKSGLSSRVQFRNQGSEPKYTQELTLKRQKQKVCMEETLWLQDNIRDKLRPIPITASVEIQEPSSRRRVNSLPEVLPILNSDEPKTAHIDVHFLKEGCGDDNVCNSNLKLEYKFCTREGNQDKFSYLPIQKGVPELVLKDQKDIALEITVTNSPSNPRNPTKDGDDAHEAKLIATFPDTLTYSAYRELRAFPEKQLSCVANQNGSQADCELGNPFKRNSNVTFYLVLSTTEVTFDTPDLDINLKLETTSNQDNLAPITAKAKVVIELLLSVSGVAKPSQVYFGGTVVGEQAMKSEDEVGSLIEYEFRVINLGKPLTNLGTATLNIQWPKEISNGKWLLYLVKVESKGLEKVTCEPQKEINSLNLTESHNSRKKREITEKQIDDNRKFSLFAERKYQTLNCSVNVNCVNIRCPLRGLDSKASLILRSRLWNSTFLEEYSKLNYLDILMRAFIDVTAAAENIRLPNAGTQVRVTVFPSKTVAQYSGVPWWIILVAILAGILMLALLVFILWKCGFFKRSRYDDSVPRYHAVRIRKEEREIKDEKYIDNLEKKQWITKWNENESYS
T3 sequence (P23229 942-1130 limits assumed): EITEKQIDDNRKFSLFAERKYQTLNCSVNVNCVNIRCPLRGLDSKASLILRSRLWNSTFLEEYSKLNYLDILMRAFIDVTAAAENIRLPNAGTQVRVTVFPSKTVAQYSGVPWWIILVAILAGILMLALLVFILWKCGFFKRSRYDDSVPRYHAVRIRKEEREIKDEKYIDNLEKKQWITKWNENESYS
T3 sequence (P16144 28-1752 isoform P16144-2 limits assumed): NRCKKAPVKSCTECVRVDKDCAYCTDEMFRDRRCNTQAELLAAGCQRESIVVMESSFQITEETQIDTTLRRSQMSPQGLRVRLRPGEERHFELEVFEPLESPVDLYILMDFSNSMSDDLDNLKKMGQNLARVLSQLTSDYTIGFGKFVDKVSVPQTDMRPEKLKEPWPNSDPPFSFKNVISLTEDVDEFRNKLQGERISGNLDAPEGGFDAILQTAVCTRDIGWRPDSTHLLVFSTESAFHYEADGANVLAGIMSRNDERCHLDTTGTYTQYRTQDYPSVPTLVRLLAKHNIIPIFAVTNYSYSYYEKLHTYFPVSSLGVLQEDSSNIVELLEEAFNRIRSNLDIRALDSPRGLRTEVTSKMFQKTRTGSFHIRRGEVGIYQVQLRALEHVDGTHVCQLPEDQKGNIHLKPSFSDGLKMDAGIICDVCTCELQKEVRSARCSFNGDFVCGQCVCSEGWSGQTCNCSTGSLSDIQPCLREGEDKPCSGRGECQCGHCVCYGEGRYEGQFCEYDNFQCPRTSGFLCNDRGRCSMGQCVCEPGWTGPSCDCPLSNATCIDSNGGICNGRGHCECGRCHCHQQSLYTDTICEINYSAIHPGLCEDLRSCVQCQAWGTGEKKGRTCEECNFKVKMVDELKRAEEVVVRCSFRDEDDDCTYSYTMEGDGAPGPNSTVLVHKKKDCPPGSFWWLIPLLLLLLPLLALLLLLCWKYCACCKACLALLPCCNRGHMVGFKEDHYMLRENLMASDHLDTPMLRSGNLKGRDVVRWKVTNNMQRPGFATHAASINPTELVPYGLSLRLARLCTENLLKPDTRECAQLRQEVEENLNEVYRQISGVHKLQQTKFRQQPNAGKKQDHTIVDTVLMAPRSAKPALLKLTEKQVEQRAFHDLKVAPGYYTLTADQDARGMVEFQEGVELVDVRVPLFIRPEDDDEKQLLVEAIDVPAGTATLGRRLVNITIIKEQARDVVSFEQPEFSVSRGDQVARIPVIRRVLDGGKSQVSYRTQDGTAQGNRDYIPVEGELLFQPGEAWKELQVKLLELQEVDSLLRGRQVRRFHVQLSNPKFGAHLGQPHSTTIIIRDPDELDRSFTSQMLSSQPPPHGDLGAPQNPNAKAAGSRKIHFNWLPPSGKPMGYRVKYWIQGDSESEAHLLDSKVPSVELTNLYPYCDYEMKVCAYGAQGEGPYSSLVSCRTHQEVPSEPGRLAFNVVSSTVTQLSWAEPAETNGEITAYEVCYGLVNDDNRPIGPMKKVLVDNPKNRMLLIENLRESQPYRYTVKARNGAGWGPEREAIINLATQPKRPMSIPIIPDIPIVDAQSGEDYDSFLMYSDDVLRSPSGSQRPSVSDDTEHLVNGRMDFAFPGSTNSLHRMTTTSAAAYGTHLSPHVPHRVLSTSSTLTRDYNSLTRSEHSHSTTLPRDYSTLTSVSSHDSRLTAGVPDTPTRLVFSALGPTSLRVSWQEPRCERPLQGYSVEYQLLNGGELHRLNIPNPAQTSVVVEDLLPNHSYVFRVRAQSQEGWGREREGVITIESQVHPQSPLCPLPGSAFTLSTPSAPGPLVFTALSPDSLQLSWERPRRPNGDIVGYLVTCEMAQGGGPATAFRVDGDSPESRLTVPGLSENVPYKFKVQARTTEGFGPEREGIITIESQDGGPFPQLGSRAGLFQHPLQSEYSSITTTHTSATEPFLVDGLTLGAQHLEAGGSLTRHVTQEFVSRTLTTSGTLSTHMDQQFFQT
Experimental: Immunoprecipitation. Immunoprecipitations were carried out as described previously (Beauvais et al., 2004; Beauvais et al., 2006). Cells were washed once with washing buffer (50 mM Hepes, 50 mM NaCl and 10 mM EDTA, pH 7.4) and lysed for 20 min on ice in 1% Triton X-100 containing a 1:1000 dilution of protease inhibitor mixture set III (Calbiochem) in washing buffer. Cell debris was removed by centrifugation at 20,000 g for 15 min at 4° C. Lysates or 6×His-tagged β4 cytoplasmic domain (amino acids 1677-1752) were incubated at 4° C. overnight with 100 μl Glutathione Sepharose 4B beads (50% in IP wash buffer), GST-S4CD or GST-S1CD in present or absent of different peptides. Samples were resolved by electrophoresis under reduced conditions on a 15% Laemmli gel, transferred to Immobilon P, and probed with primary antibody followed by an alkaline phosphatase-conjugated secondary antibody. Visualization of immune-reactive bands was performed using ECF reagent (GE Healthcare) and scanned on a Typhoon Trio Variable Mode Imager (GE-Healthcare) in blue fluorescence.
The inventor's prior work has shown that Sdc1 contains a site in its extracellular domain to capture the αvβ3 or αvβ5 integrin and the insulin-like growth factor-1 receptor (IGF1-R) (Beauvais et al., 2009; Beauvais & Rapraeger, 2010). […]

[15] = Estimated blood concentration during Alzet pump delivery; type: in vivo, nude (nu/nu) mice; conditions: 400 μM in the pump
Experimental: as §3, §4

## 4126-131: synthetic peptide with truncation of amino acids 126-131 at the C-terminus (NHIPERAGSGSQVPTEPKKLEENEVIPKRISPVEESEDV)
[1]; 0.1 to 30 μM, 20 ng/ml EGF, FIG. 8C
  reduction of competitive activity, synthetic peptide variants versus peptide 87-131: at least 100 fold

## COc1cc(/C=C(\C#N)C(N)=O)cc(CSc2nc3ccccc3s2)c1O [AG825]
[2]; 10 μM AG825
  effect on EGF-induced migration / wound closure (in words): not inhibited; also recorded: not by the tyrphostin AG825

## COc1cc2ncnc(Nc3ccc(F)c(Cl)c3)c2cc1OCCCN1CCOCC1 [Iressa]
[2]; 1 μM Iressa
  effect on EGF-induced migration / wound closure (in words): does block wound closure; also recorded: blocked

## NHIPERAGSGSQVPTEPKKLEENEVIPKRISPVEESEDVSNKVSM
[3]
  growth/survival (total cell number): do target growth/survival mechanisms; also recorded: inhibited
[2]
  effect on EGF-induced migration / wound closure (in words): blocks
[4]
  growth or survival (total cell number): no effect
[5]
  growth/survival (total cell number): do target growth/survival mechanisms; also recorded: inhibited
[6]
  growth or survival (total cell number): no effect
[7]
  growth/survival (total cell number): do target growth/survival mechanisms; also recorded: inhibited
[8]
  growth/survival (total cell number): do target growth/survival mechanisms; also recorded: inhibited
[9]; 12 h
  IC50: 100 to 300 nM
[9]; EGF 10 ng/ml, scratch wound closure
  effect on EGF-stimulated migration/chemotaxis (in words): blocks

## S4ED98-131: truncated Sdc4 ectodomain, amino acids 98-131 (QVPTEPKKLEENEVIPKRISPVEESEDVSNKVSM)
[1]
  competitive activity: ca. 10%
[10]
  loss of activity versus S4ED78-131 as competitor for cell adhesion: 100 fold

## S4ED 78-118: truncated Sdc4 ectodomain, amino acids 78-118 (VVHPLVPLDNHIPERAGSGSQVPTEPKKLEENEVIPKRISP)
[1]
  competitive activity: ca. 10%
[10]
  activity as competitor for cell adhesion to full-length S4ED (in words): completely inactive

B1: GST-S4ED: recombinant Sdc4 ectodomain GST fusion protein (protein)
chain: ESIRETEVIDPQDLLEGRYFSGALPDDEDVVGPGQESDDFELSGSGDLDDLEDSMIGPEVVHPLVPLDNHIPERAGSGSQVPTEPKKLEENEVIPKRISPVEESEDVSNKVSMSSTVQGSNIFERTE
modifications: left off: a dimerising Fc or GST
notes: recombinant Sdc4 ectodomain GST fusion protein
[11]
  tumor growth: tumor growth leveling off
[11]; listed as S4ED
  tumor growth: blocks
[12]
  capture of HER2: captures only EGFR
[13]
  capture of EGFR: captures
[13]; listed as S4ED
  capture of EGFR: captures only EGFR
[14]
  capture of α6β4 integrin: also captured
[15]
  estimated concentration in the blood: 2 to 3 µM
[9]; 10 μM, EGF 10 ng/ml, 12 hr scratch wound closure
  block of EGF-stimulated migration: 80%
